Reference: patent US11541056B2, “3-hydroxy-N-(3-(7H-pyrrolo[2,3-d]pyrimidin-4-yl)phenyl)pyrrolidine-1-carboxamide derivatives” (NOVARTIS AG, priority 2018, dated 2023)

system: TMD8 cells; assay: Resazurin cell viability assay in DLBCL cells (TMD8); assay type: cell-based; conditions: Homo sapiens, TMD8, 72 h, TMD8 cells (BTK dependent), 50% growth inhibition, read-out: TMD8 Prol GI50
Procedure: Compounds of the invention were tested in the following cellular assays. The terms in Table 1 are defined as follows: DC50 refers to the concentration at which 50% maximal degradation was observed; deg Amax is the extent of degradation and the value refers to the % protein remaining at the concentration at which maximum degradation is seen; Prol GI50 refers to the proliferation data and defines the concentration at which 50% growth inhibition was observed compared to the vehicle treated control at the end of the incubation time. TMD8 cells are BTK dependent and OCI-LY3 cells are BTK independent.
Cell Viability Assay in DLBCL (Diffuse Large B-Cell Lymphoma) Cells:
The effect of the BTK compounds on cell proliferation was measured by a Resazurin (Sigma, #R7017) based cell viability assay. TMD8 (BTK compound sensitive) and OCI-LY3 (BTK compound insensitive) cells were incubated for 72 h at 37° C. and 5% CO2 with the corresponding compound. Resazurin is a non-toxic, cell-permeable substrate that is virtually non-fluorescent. Upon entering living cells, Resazurin (Sigma, #R7017) is reduced to highly fluorescent Resorufin. The metabolic activity was assessed by measuring the fluorescence signal (ex. 530 nm; em. 600 nm).
TMD8 and OCI-Ly3 cells were seeded at day 0 in triplicates at a cell density of 1×10^4 cells per 150 μl/well in a 96-well plate (Costar #3904). Additional plates were prepared, in order to assess the basal metabolic activity of both cell lines at the beginning of the experiment. For these reference plates, Resazurin (Sigma, #R7017) was added to a final concentration of 13 μg/ml 3 h post seeding and was incubated for 2 h at 37° C. and 5% CO2. Following incubation, the fluorescent signal intensity of the 96-well plates was measured on a Mithras LB940 multimode plate reader at 530/600 nm (Berthold Technologies, Germany).
In parallel, 3 h post-seeding, test-plates were treated with compound at various concentrations, or with vehicle (DMSO) alone for 3 days. The compound addition to the plates was performed by using a HP D300 digital dispenser (TECAN, Switzerland). The compounds were tested in triplicate, 8-point serial dilution (1:4), with a start concentration of 10 μM for OCI-LY3 and 1 μM for the TMD8 cells, respectively. To assess the relative proliferation of the cells, Resazurin was added to each well directly to the medium to a final concentration of 13 μg/ml. The plates were incubated for 2 h at 37° C. and 5% CO2 to result in a 72 h endpoint. Following incubation, the fluorescent signal intensity of the 96-well plates were measured on a Mithras LB940 multimode plate reader at 530/600 nm (Berthold Technologies, Germany). The formation of Resorufin dye directly correlates with the number of metabolically active cells. For each triplicate treatment the mean and standard deviation were calculated and analyzed via curve fitting software to determine the respective compound concentration resulting in 50% growth inhibition (GI50) values. For each compound GI50 values were typically determined from at least 2 entirely independent experiments.
TMD8 cells were acquired through a license agreement with Tokyo Medical and Dental University, Japan. Cells are cultivated in MEM Alpha (BioConcept, #1-23F01-I, lot. LB04262P) supplemented with 10% FCS (HyClone, GE #SH30066.03, lot AB217603), 2 mM L-Glutamine (BioConcept, #5-10K50-H, lot. LA03467P), 1% Pen/Strep (BioConcept, #4-01F00-H, lot. LB04235P).

Q: For `COc1ccc(C(=O)N2CCC3(CCN(Cc4ccc(-c5cc6c(-c7cc(F)cc(NC(=O)N8C[C@@H](CC(C)C)[C@H](O)C8)c7C)ncnc6[nH]5)cc4)CC3)CC2)cc1N1CCC(=O)NC1=O` [Compound 1, (3S,4R)—N-(3-(6-(4-((9-(3-(2,4-Dioxotetrahydropyrimidin-1(2H)-yl)-4-methoxybenzoyl)-3,9-diazaspiro[5.5]undecan-3-yl)methyl)phenyl)-7H-pyrrolo[2,3-d]pyrimidin-4-yl)-5-fluoro-2-methylphenyl)-3-hydroxy-4-isobutylpyrrolidine-1-carboxamide], which GI50 is on record?
A: 14 nM

Q: How did the GI50 turn out when `COc1ccc(C(=O)N2CCC(OCCN3CCN(Cc4ccc(-c5cc6c(-c7cc(F)cc(NC(=O)N8C[C@H](CC(C)C)[C@@H](O)C8)c7C)ncnc6[nH]5)cc4)CC3)CC2)cc1N1CCC(=O)NC1=O` [Compound 2, (3R,4S)—N-(3-(6-(4-((4-(2-((1-(3-(2,4-Dioxotetrahydropyrimidin-1 (2H)-yl)-4-methoxybenzoyl)piperidin-4-yl)oxy)ethyl)piperazin-1-yl)methyl)phenyl)-7H-pyrrolo[2,3-d]pyrimidin-4-yl)-5-fluoro-2-methylphenyl)-3-hydroxy-4-isobutylpyrrolidine-1-carboxamide] was run?
A: 0.31 nM

Q: With `COc1ccc(C(=O)N2CCC3(CCN(Cc4ccc(-c5cc6c(-c7cc(F)cc(NC(=O)N8C[C@H](CC(C)C)[C@@H](O)C8)c7C)ncnc6[nH]5)cc4)CC3)CC2)cc1N1CCC(=O)NC1=O` [Compound 6, (3R,4S)—N-(3-(6-(4-((9-(3-(2,4-Dioxotetrahydropyrimidin-1(2H)-yl)-4-methoxybenzoyl)-3,9-diazaspiro[5.5]undecan-3-yl)methyl)phenyl)-7H-pyrrolo[2,3-d]pyrimidin-4-yl)-5-fluoro-2-methylphenyl)-3-hydroxy-4-isobutylpyrrolidine-1-carboxamide] as the compound, how does the GI50 read?
A: 0.45 nM

Q: With `COc1ccc(C(=O)N2CCC(OC3CCN(Cc4ccc(-c5cc6c(-c7cc(F)cc(NC(=O)N8C[C@H](CC(C)C)[C@@H](O)C8)c7C)ncnc6[nH]5)cc4)CC3)CC2)cc1N1CCC(=O)NC1=O` [Compound 8, (3R,4S)—N-(3-(6-(4-((4-((1-(3-(2,4-Dioxotetrahydropyrimidin-1(2H)-yl)-4-methoxybenzoyl)piperidin-4-yl)oxy)piperidin-1-yl)methyl)phenyl)-7H-pyrrolo[2,3-d]pyrimidin-4-yl)-5-fluoro-2-methylphenyl)-3-hydroxy-4-isobutylpyrrolidine-1-carboxamide] as the compound, how does the GI50 read?
A: 0.4 nM

Q: For `COc1ccc(C(=O)N2CCC(CN3CCC(Oc4ccc(-c5cc6c(-c7cc(F)cc(NC(=O)N8C[C@H](CC(C)C)[C@@H](O)C8)c7C)ncnc6[nH]5)cc4)CC3)CC2)cc1N1CCC(=O)NC1=O` [Compound 11, (3R,4S)—N-(3-(6-(4-((1-((1-(3-(2,4-Dioxotetrahydropyrimidin-1 (2H)-yl)-4-methoxybenzoyl)piperidin-4-yl)methyl)piperidin-4-yl)oxy)phenyl)-7H-pyrrolo[2,3-d]pyrimidin-4-yl)-5-fluoro-2-methylphenyl)-3-hydroxy-4-isobutylpyrrolidine-1-carboxamide], which GI50 is on record?
A: 0.18 nM

Q: Which GI50 does the source give for `COc1ccc(C(=O)N2CCC(CN3CCN(Cc4ccc(-c5cc6c(-c7cc(F)cc(NC(=O)N8C[C@H](CC(C)C)[C@@H](O)C8)c7C)ncnc6[nH]5)cc4)CC3)CC2)cc1N1CCC(=O)NC1=O` [Compound 12, (3R,4S)—N-(3-(6-(4-((4-((1-(3-(2,4-Dioxotetrahydropyrimidin-1(2H)-yl)-4-methoxybenzoyl)piperidin-4-yl)methyl)piperazin-1-yl)methyl)phenyl)-7H-pyrrolo[2,3-d]pyrimidin-4-yl)-5-fluoro-2-methylphenyl)-3-hydroxy-4-isobutylpyrrolidine-1-carboxamide] here?
A: 0.3 nM

Q: With `COc1ccc(C(=O)N2CCC(OC3CCN(CCc4ccc(-c5cc6c(-c7cc(F)cc(NC(=O)N8C[C@H](CC(C)C)[C@@H](O)C8)c7C)ncnc6[nH]5)cc4)CC3)CC2)cc1N1CCC(=O)NC1=O` [Compound 13, (3R,4S)—N-(3-(6-(4-(2-(4-((1-(3-(2,4-Dioxotetrahydropyrimidin-1(2H)-yl)-4-methoxybenzoyl)piperidin-4-yl)oxy)piperidin-1-yl)ethyl)phenyl)-7H-pyrrolo[2,3-d]pyrimidin-4-yl)-5-fluoro-2-methylphenyl)-3-hydroxy-4-isobutylpyrrolidine-1-carboxamide] as the compound, how does the GI50 read?
A: 0.24 nM

Q: With `COc1ccc(C(=O)N2CCC3(CCN(CCc4ccc(-c5cc6c(-c7cc(F)cc(NC(=O)N8C[C@H](CC(C)C)[C@@H](O)C8)c7C)ncnc6[nH]5)cc4)CC3)CC2)cc1N1CCC(=O)NC1=O` [Compound 15, (3R,4S)—N-(3-(6-(4-(2-(9-(3-(2,4-Dioxotetrahydropyrimidin-1(2H)-yl)-4-methoxybenzoyl)-3,9-diazaspiro[5.5]undecan-3-yl)ethyl)phenyl)-7H-pyrrolo[2,3-d]pyrimidin-4-yl)-5-fluoro-2-methylphenyl)-3-hydroxy-4-isobutylpyrrolidine-1-carboxamide] as the compound, how does the GI50 read?
A: 0.22 nM

Q: With `COc1ccc(C(=O)N2CCC3(CCN(CCc4ccc(-c5cc6c(-c7cc(F)cc(NC(=O)N8C[C@@H](CC(C)C)[C@H](O)C8)c7C)ncnc6[nH]5)cc4)CC3)CC2)cc1N1CCC(=O)NC1=O` [Compound 19, (3S,4R)—N-(3-(6-(4-(2-(9-(3-(2,4-dioxotetrahydropyrimidin-1(2H)-yl)-4-methoxybenzoyl)-3,9-diazaspiro[5.5]undecan-3-yl)ethyl)phenyl)-7H-pyrrolo[2,3-d]pyrimidin-4-yl)-5-fluoro-2-methylphenyl)-3-hydroxy-4-isobutylpyrrolidine-1-carboxamide] as the compound, how does the GI50 read?
A: 4.87 nM

Q: Which GI50 does the source give for `COc1ccc(C(=O)N2CCC(CCN3CCC(OCc4ccc(-c5cc6c(-c7cc(F)cc(NC(=O)N8C[C@H](CC(C)C)[C@@H](O)C8)c7C)ncnc6[nH]5)cc4)CC3)CC2)cc1N1CCC(=O)NC1=O` [Compound 22, (3R,4S)—N-(3-(6-(4-(((1-(2-(1-(3-(2,4-Dioxotetrahydropyrimidin-1 (2H)-yl)-4-methoxybenzoyl)piperidin-4-yl)ethyl)piperidin-4-yl)oxy)methyl)phenyl)-7H-pyrrolo[2,3-d]pyrimidin-4-yl)-5-fluoro-2-methylphenyl)-3-hydroxy-4-isobutylpyrrolidine-1-carboxamide] here?
A: 0.23 nM

same assay, conditions: TMD8 cells (BTK dependent), 72 h, 50% growth inhibition; read-out: TMD8 Prol GI50

Q: With `COc1ccc(C(=O)N2CCC3(CCN(Cc4ccc(-c5cc6c(-c7cc(F)cc(NC(=O)N8C[C@@H](CC(C)C)[C@H](O)C8)c7C)ncnc6[nH]5)cc4)CC3)CC2)cc1N1CCC(=O)NC1=O` (racemic) [Compound 5, trans-rac-N-(3-(6-(4-((9-(3-(2,4-Dioxotetrahydropyrimidin-1(2H)-yl)-4-methoxybenzoyl)-3,9-diazaspiro[5.5]undecan-3-yl)methyl)phenyl)-7H-pyrrolo[2,3-d]pyrimidin-4-yl)-5-fluoro-2-methylphenyl)-3-hydroxy-4-isobutylpyrrolidine-1-carboxamide] as the compound, how does the GI50 read?
A: 0.73 nM
